Measurements reported in patent US20250145600A1, “2-((4-((S)-2-(4-CHLORO-2-FLUOROPHENYL)-2-METHYLBENZO[D][1,3]DIOXOL-4-YL)PIPERIDIN-1-YL)METHYL)-1-(((S)-OXETAN-2-YL)METHYL)-1H-IMIDAZOLE DERIVATIVES AS ACTIVATORS OF THE GLP1 RECEPTOR FOR THE TREATMENT OF OBESITY” (Novartis AG, priority 2022, published 2025).

Target: human GLP1R (hGLP1R) (Homo sapiens, UniProt P43220)
Test: Human GLP1R β-arrestin recruitment assay (PathHunter)
Type: cell-based
Design: insert synthesized by GeneArt 93-0164 (CHO-K1-EA parental cells); 93-0491 (pCMV PK vector bundle)
Conditions: CHO-hGLP1R-β-arrestin cells
Procedure: Compounds of formula (I) according to the invention were tested in the following cellular assays that measure the intracellular cAMP concentration, beta-arrestin recruitment and receptor internalization. The cAMP is generated by the activation of GLP1R. The extent to which the GLP1R is internalized into the cell and away from the plasma membrane following activation is also shown in Table 2. EC50 for each assay is defined as the concentration of the compound that leads to half of the maximum response (after baseline correction). Emax is defined as the maximum response observed for the test compound, normalized to the maximum response observed for the endogenous ligand (GLP1(7-36)) to GLP1R.
Human GLP1R β-Arrestin Recruitment Assay
The extent to which agonists recruited β-arrestin was measured using the PathHunter® β-arrestin assay (DiscoverX). This assay measures binding of β-arrestin to the receptor using an enzyme complementation approach. […] When β-arrestin is recruited to the receptor the enzyme becomes active and generates luminescence in the presence of a chemiluminescent substrate (PathHunter® Detection Kit, DiscoverX cat #93-0001). Luminescence can be measured on a relevant detector. CHO-hGLP1R-β-arrestin cells stably overexpressing hGLP1R with Prolink tag and β-arrestin with EA tag were seeded at 20 μL per well in white 384-well poly-D-Lysine coated plates (Greiner Bio One, cat #781945) in Plating Reagent 2 (DiscoverX, cat #93-0563R^2A), and incubated overnight at 37° C., 5% CO2 with humidity. The following day, agonists were prepared at 5 times the final required concentration. To generate triplicate dose response curves, compounds were serially diluted 3-fold in assay buffer (HBSS, 10 mM Hepes and 0.1% BSA), then added to the cell assay plate to a final volume of 25 μL and final top concentrations starting at 30 μM. In the same plate and assay buffer as the tested compounds, were EC100 control wells containing GLP1 (7-36) peptide (Bachem, cat #H-6795) at a final concentration of 1 μM and also EC0 control wells containing no compound. The plate was incubated at 37° C., 5% CO2 with humidity for 2 h after adding the compounds to the cells. Then the detection reagent was prepared (19 parts cell assay buffer, 5 parts substrate reagent 1 and 1 part substrate reagent 2 as per manufacturers recommendations, DiscoverX cat #93-0001), and 12 μL were added per well to the cell assay plate. The plate was incubated for an additional hour in the dark at RT. Luminescence was then measured with an Envision 2104 Multilabel reader with “TRF Light Unit, 337 nm” (Perkin Elmer) using the Ultra-Sensitive protocol setting “384-well US luminescence detector” with the 384-well luminescence aperture, 0.1 sec per well. β-arrestin recruitment was calculated and expressed as percent of the GLP1 (7-36) EC100 control wells: [(sample signal−mean EC0 signal)/(mean EC100 of GLP1 (7-36) signal−mean EC0 signal)]*100 using Microsoft Excel. Curve fitting for EC50 determinations was performed using GraphPad Prism. The 4-parameter logistic model, Hill slope was used: Y=Bottom+(Top−Bottom)/(1+10^((Log EC50−X)*Hill Slope)), where Y is the functional response; X is the compound concentration; bottom is A0 or the minimum value (at 0 dose); top is Ainf or the maximum value (at infinite dose); EC50 is the point of inflection (i.e. the point on the sigmoid shaped curve halfway between A0 and Ainf). The EC50 value was calculated in μM. Emax is the maximal activity detected within the concentration range, derived from the fitted curve relative to GLP1(7-36).
PathHunter CHO-K1-EA parental cells (DiscoverX, cat #93-0164) were plated at a density of 2×10^6 cells per T75 cm^2 flask in 22 mL of complete medium (AssayComplete Cell Culture kit 107, DiscoverX, cat #92-3107G). The following day, the medium was replaced with 22 mL of fresh medium with no antibiotics and cells were transfected as follows. […]

Chain of human GLP1R (hGLP1R) (P43220 24-463): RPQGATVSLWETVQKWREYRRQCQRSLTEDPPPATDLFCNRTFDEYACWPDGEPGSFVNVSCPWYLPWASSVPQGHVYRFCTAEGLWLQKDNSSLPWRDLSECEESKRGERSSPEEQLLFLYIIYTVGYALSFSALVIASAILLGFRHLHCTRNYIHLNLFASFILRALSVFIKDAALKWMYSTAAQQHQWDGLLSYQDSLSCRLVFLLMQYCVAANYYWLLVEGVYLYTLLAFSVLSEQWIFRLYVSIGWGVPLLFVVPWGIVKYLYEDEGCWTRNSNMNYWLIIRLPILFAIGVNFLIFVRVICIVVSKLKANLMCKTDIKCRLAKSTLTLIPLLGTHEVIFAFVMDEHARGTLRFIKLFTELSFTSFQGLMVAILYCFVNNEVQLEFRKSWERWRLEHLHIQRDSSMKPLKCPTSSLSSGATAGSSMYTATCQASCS

Question: For `Cc1nc(CN2CCC(c3cccc4c3O[C@@](C)(c3ccc(Cl)cc3F)O4)CC2)n(C[C@@H]2CCO2)c1-c1cc(C(=O)O)n(C)n1` [Compound C-21, 3-(2-((4-((S)-2-(4-chloro-2-fluorophenyl)-2-methylbenzo[d][1,3]dioxol-4-yl)piperidin-1-yl)methyl)-4-methyl-1-(((S)-oxetan-2-yl)methyl)-1H-imidazol-5-yl)-1-methyl-1H-pyrazole-5-carboxylic acid], which EC50 (2 h at 37° C., top concentration 30 μM, read-out: Beta-Arrestin assay EC50 Mean) is on record?
Answer: > 30 µM

Question: What about the Emax (relative to GLP1(7-36), read-out: Beta-Arrestin assay Emax (%)) of the same molecule?
Answer: 0%
